The source made the active and inactive calls. No cut-off for these calls is given here.
Columns and labels:
MCF7 [1] = test: Cytotoxicity against human MCF7 cells assessed as morphological changes at 10 uM after 24 hrs by inverted phase-contrast microscopic analysis; format: functional, cell-based
U-937 [2] = test: Induction of apoptosis in human U937 cells assessed as increase in apoptotic cells at 10 uM after 24 hrs by propidium iodide staining-based flow cytometric analysis (reference value: 2.3 /- 0.4%); format: functional
HL-60 [3] = test: Cytotoxicity against human HL60 cells after 72 hrs by MTT assay; format: functional, cell-based; conditions: for IC50: HL-60, 72 h
U-937 [4] = test: Cytotoxicity against human U937 cells assessed as reduction in cell number at 10 uM after 24 hrs by inverted phase-contrast microscopic analysis; format: functional, cell-based
U-937 [5] = test: Induction of apoptosis in human U937 cells assessed as […] hydrolysis of chromatin at 10 uM after 24 hrs by agarose gel electrophoretic analysis; format: functional, cell-based
MOLT-3 [6] = test: Induction of apoptosis in human MOLT3 cells assessed as increase in apoptotic cells at 10 uM after 24 hrs by propidium iodide staining-based flow cytometric analysis (reference value: 3.1 /- 0.7%); format: functional
U-937 [7] = test: Induction of apoptosis in human U937 cells assessed as increase in chromatin condensation at 10 uM after 24 hrs by Hoechst staining-based flow cytometric analysis; format: functional, cell-based
HL-60 [8] = test: Cytotoxicity against human HL60 cells assessed as reduction in cell number at 10 uM after 24 hrs by inverted phase-contrast microscopic analysis; format: functional, cell-based
U-937 [9] = test: Cytotoxicity against human U937 cells after 72 hrs by MTT assay; format: functional, cell-based; conditions: for IC50: U-937, 72 h
MOLT-3 [10] = test: Cytotoxicity against human MOLT3 cells after 72 hrs by MTT assay; format: functional, cell-based; conditions: for IC50: MOLT-3, 72 h
MOLT-3 [11] = test: Cytotoxicity against human MOLT3 cells assessed as morphological changes at 10 uM after 24 hrs by inverted phase-contrast microscopic analysis; format: functional, cell-based
MOLT-3 [12] = test: Cytotoxicity against human MOLT3 cells assessed as reduction in cell number at 10 uM after 24 hrs by inverted phase-contrast microscopic analysis; format: functional, cell-based
HL-60 [13] = test: Induction of apoptosis in human HL60 cells assessed as increase in chromatin condensation at 10 uM after 24 hrs by Hoechst staining-based flow cytometric analysis; format: functional, cell-based
U-937 [14] = test: Cytotoxicity against human U937 cells assessed as morphological changes at 10 uM after 24 hrs by inverted phase-contrast microscopic analysis; format: functional, cell-based
HL-60 [15] = test: Cytotoxicity against human HL60 cells assessed as morphological changes at 10 uM after 24 hrs by inverted phase-contrast microscopic analysis; format: functional, cell-based
HL-60 [16] = test: Induction of apoptosis in human HL60 cells assessed as […] hydrolysis of chromatin at 10 uM after 24 hrs by agarose gel electrophoretic analysis; format: functional, cell-based
MOLT-3 [17] = test: Induction of apoptosis in human MOLT3 cells assessed as […] hydrolysis of chromatin at 10 uM after 24 hrs by agarose gel electrophoretic analysis; format: functional, cell-based
MOLT-3 [18] = test: Induction of apoptosis in human MOLT3 cells assessed as increase in chromatin condensation at 10 uM after 24 hrs by Hoechst staining-based flow cytometric analysis; format: functional, cell-based
MCF7 [19] = test: Cytotoxicity against human MCF7 cells after 72 hrs by MTT assay; format: functional, cell-based; conditions: for IC50: MCF7, 72 h

Structure (SMILES)	Activity (MCF7 [1])	Activity (HL-60 [3])	IC50 (HL-60 [3]) [µM]	Activity (U-937 [4])	Activity (U-937 [5])	Activity (U-937 [7])	Activity (HL-60 [8])	Activity (U-937 [9])	IC50 (U-937 [9]) [µM]	Activity (MOLT-3 [10])	IC50 (MOLT-3 [10]) [µM]	Activity (MOLT-3 [11])	Activity (MOLT-3 [12])	Activity (HL-60 [13])	Activity (U-937 [14])	Activity (HL-60 [15])	Activity (HL-60 [16])	Activity (MOLT-3 [17])	Activity (MOLT-3 [18])	Activity (MCF7 [19])	also measured
CC(C)[C@H]1CC[C@H](C)C[C@@H]1O[C@H]1O[C@H](CO[C@@H]2O[C@H](COC(=O)c3ccc(Br)cc3)[C@@H](OC(=O)c3ccc(Br)cc3)[C@H](O)[C@H]2O)[C@@H](O)[C@H](O)[C@H]1O	Active	Dose-dependent effect	7.3	Active	Active	Active	Active	Dose-dependent effect	6.9	Dose-dependent effect	5.8	Active	Active	Active	Active	Active	Active	Active	Active	Dose-dependent effect	Activity (U-937 [2]): 46%; Activity (MOLT-3 [6]): 69.5%; IC50 (MCF7 [19]): 6.1 µM
CC(C)[C@@H]1CC[C@@H](C)C[C@H]1O[C@@H]1O[C@H](CO[C@@H]2O[C@H](COC(=O)c3ccc(Br)cc3)[C@@H](OC(=O)c3ccc(Br)cc3)[C@H](O)[C@H]2O)[C@@H](O)[C@H](O)[C@H]1O	Active	Dose-dependent effect	7	Active	Active	Active	Active	Dose-dependent effect	9.2	Dose-dependent effect	11.4	Active	Active	Active	Active	Active	Active	Active	Active	Dose-dependent effect	IC50 (MCF7 [19]): 12.9 µM
